Measured values from ChEMBL document CHEMBL3272348, “Synthesis and pharmacology of 2,9alpha-dimethyl-2'-hydroxy-6,7-benzomorphan” (J Med Chem, 1976).
The source made the active and inactive calls. The rule behind the calls is not given here.

Experiments:
[1] = test system: Mus musculus; experiment: Analgesic activity in sc dosed white mouse by hot plate method; assay type: functional
[2] = test system: Rhesus monkey; experiment: Precipitation of abstinence syndrome of long duration in morphine-dependent monkey assessed as abdominal cramps; assay type: ADME, organism-based, Macaca mulatta, Abdomen; details: in vivo
[3] = test system: Rhesus monkey; experiment: Precipitation of abstinence syndrome of long duration in morphine-dependent monkey assessed as irritability; assay type: ADME, organism-based, Macaca mulatta; details: in vivo
[4] = test system: Rhesus monkey; experiment: Precipitation of abstinence syndrome of long duration in morphine-dependent monkey assessed as movement within cage; assay type: ADME, organism-based, Macaca mulatta; details: in vivo
[5] = test system: Rhesus monkey; experiment: Precipitation of abstinence syndrome of long duration in morphine-dependent monkey assessed as hyperexcitability; assay type: ADME, organism-based, Macaca mulatta; details: in vivo
[6] = test system: Rhesus monkey; experiment: Narcotic antagonist activity in morphine-dependent monkey; assay type: functional, organism-based; details: Macaca mulatta

Row | SMILES | ED50 [1] [mg/kg] | Activity [2] | Activity [3] | Activity [4] | Activity [5] | Activity [6]
1 | CCOC(=O)C1(c2ccccc2)CCN(C)CC1 [MEPERIDINE] | 4.5 |  |  |  |  | 
2 | C[C@H]1C2Cc3ccc(O)cc3[C@@H]1CCN2C | 4.3 | Toxic | Toxic | Non-toxic | Non-toxic | 
3 | CN1CC[C@]23c4c5ccc(O)c4O[C@H]2[C@@H](O)C=C[C@H]3[C@H]1C5 [MORPHINE] | 1.2 |  |  |  |  | 
4 | C[C@@H]1C2Cc3ccc(O)cc3[C@@H]1CCN2C | 1.1 | Toxic | Toxic | Non-toxic | Non-toxic | Active
5 | CN1CC[C@@H]2CC1Cc1ccc(O)cc12 |  |  |  |  |  | Active
